Assay results: ChEMBL document CHEMBL5620396, “Phenotypic screening identifies a trisubstituted imidazo[1,2-a]pyridine series that induces differentiation in multiple AML cell lines” (Eur J Med Chem, 2023)
≈ marks a conversion by molar mass, not a printed value. Calls of active or inactive are those of the source. The calls are words filed in the database; no cut-off is given here.

Legend:
OCI-AML-3 [1] = assay: Induction of differentiation in human OCI-AML-3 cells assessed as reduction in live cell number at 123 nM incubated for 4 days by acridine orange/DAPI staining based analysis; assay type: functional; details: time 4.0 day
[2] = Cmax in CD-1 mouse at 1 mg/kg, po administered as repeated dose on day 1 and 4; assay type: ADME, organism-based; details: in vivo, time 4 day
Kasumi 1 [3] = assay: Induction of differentiation in human Kasumi 1 cells assessed as reduction in live cell number at 123 nM incubated for 4 days by acridine orange/DAPI staining based analysis; assay type: functional; details: time 4.0 day
Kasumi 1 [4] = assay: Induction of morphological changes in human Kasumi 1 cells assessed as variations in nuclear:cytoplasmic ratio at 10 uM; assay type: functional, cell-based
HL-60 [5] = assay: Induction of morphological changes in human HL-60 cells assessed as variations in nuclear:cytoplasmic ratio at 10 uM; assay type: functional, cell-based
[6] = Solubility of compound at pH 1; assay type: physicochemical; details: buffer
[7] = Dose normalized Cmax in CD-1 mouse at 20 mg/kg, po administered as repeated dose on day 1 and 4; assay type: ADME, organism-based; details: in vivo, 96 h, time 4 day
KG-1 [8] = assay: Induction of morphological changes in human KG-1 cells assessed as variations in nuclear segmentation at 10 uM; assay type: functional, cell-based
[9] = AUC (0 to 8 hrs) in CD-1 mouse at 1 mg/kg, po administered as single dose and measured on day 1; assay type: ADME, organism-based; details: in vivo, time 1 day
[10] = Dose normalized AUC (0 to 8 hrs) in CD-1 mouse at 3 mg/kg, po administered as single dose and measured over 24 hrs; assay type: ADME, organism-based; details: in vivo
[11] = Dose normalized Cmax in CD-1 mouse at 20 mg/kg, po administered as single dose and measured on day 1; assay type: ADME, organism-based; details: in vivo, 24 h, time 1 day
[12] = AUC (0 to 8 hrs) in CD-1 mouse at 1 mg/kg, po administered as repeated dose on day 1 and 4; assay type: ADME, organism-based; details: in vivo, time 4 day
[13] = Dose normalized AUC (0 to 8 hrs) in CD-1 mouse at 20 mg/kg, po administered as repeated dose on day 1 and 4; assay type: ADME, organism-based; details: in vivo, 96 h, time 4 day
[14] = Semi-thermodynamic aqueous solubility of compound; assay type: physicochemical; details: buffer; read-out: Therm_solubility
OCI-AML-3 [15] = assay: Induction of morphological changes in human OCI-AML-3 cells assessed as variations in nuclear segmentation at 10 uM; assay type: functional, cell-based
[16] = Dose normalized AUC (0 to 8 hrs) in CD-1 mouse at 20 mg/kg, po administered as single dose and measured on day 1; assay type: ADME, organism-based; details: in vivo, 24 h, time 1 day
KG-1 [17] = assay: Induction of morphological changes in human KG-1 cells assessed as variations in nuclear:cytoplasmic ratio at 10 uM; assay type: functional, cell-based
THP-1 [18] = assay: Induction of morphological changes in human THP-1 cells assessed as variations in nuclear segmentation at 10 uM; assay type: functional, cell-based
[19] = Cmax in CD-1 mouse at 3 mg/kg, po administered as single dose and measured over 24 hrs; assay type: ADME, organism-based; details: in vivo
[20] = Half life in CD-1 mouse at 3 mg/kg, po administered as single dose and measured over 24 hrs; assay type: ADME, organism-based; details: in vivo
[21] = AUC (0 to 8 hrs) in CD-1 mouse at 3 mg/kg, po administered as single dose and measured over 24 hrs; assay type: ADME, organism-based; details: in vivo
THP-1 [22] = assay: Induction of differentiation in human THP-1 cells assessed as reduction in live cell number at 123 nM incubated for 4 days by acridine orange/DAPI staining based analysis; assay type: functional; details: time 4.0 day
KG-1 [23] = assay: Induction of differentiation in human KG-1 cells assessed as reduction in live cell number at 123 nM incubated for 4 days by acridine orange/DAPI staining based analysis; assay type: functional; details: time 4.0 day
HL-60 [24] = assay: Induction of morphological changes in human HL-60 cells assessed as variations in cell size and shape at 10 uM; assay type: functional, cell-based
OCI-AML-3 [25] = assay: Induction of morphological changes in human OCI-AML-3 cells assessed as variations in nuclear:cytoplasmic ratio at 10 uM; assay type: functional, cell-based
[26] = AUC (0 to 8 hrs) in CD-1 mouse at 20 mg/kg, po administered as single dose and measured on day 1; assay type: ADME, organism-based; details: in vivo, time 1 day
KG-1 [27] = assay: Induction of morphological changes in human KG-1 cells assessed as variations in cell size and shape at 10 uM; assay type: functional, cell-based
ME-1 [28] = assay: Induction of differentiation in human ME-1 cells assessed as reduction in live cell number at 123 nM incubated for 4 days by acridine orange/DAPI staining based analysis; assay type: functional; details: time 4.0 day
OCI-AML-3 [29] = assay: Induction of morphological changes in human OCI-AML-3 cells assessed as variations in cell size and shape at 10 uM; assay type: functional, cell-based
HL-60 [30] = assay: Induction of morphological changes in human HL-60 cells assessed as appearance of granules and vacuoles at 10 uM; assay type: functional, cell-based
[31] = Apparent clearance in CD-1 mouse at 3 mg/kg, po administered as single dose and measured over 24 hrs; assay type: ADME, organism-based; details: in vivo
ME-1 [32] = assay: Induction of morphological changes in human ME-1 cells assessed as appearance of granules and vacuoles at 10 uM; assay type: functional, cell-based
Kasumi 1 [33] = assay: Induction of morphological changes in human Kasumi 1 cells assessed as variations in nuclear segmentation at 10 uM; assay type: functional, cell-based
THP-1 [34] = assay: Induction of morphological changes in human THP-1 cells assessed as appearance of granules and vacuoles at 10 uM; assay type: functional, cell-based
[35] = Toxicity in CD-1 mouse assessed as adverse effects at 3 mg/kg, po administered twice daily for 7 days; assay type: organism-based; details: in vivo, 168 h, time 7 day
[36] = Oral bioavailability in CD-1 mouse at 3 mg/kg administered as single dose and measured over 24 hrs; assay type: ADME, organism-based; details: in vivo
[37] = Half life in CD-1 mouse at 20 mg/kg, po administered as repeated dose on day 1 and 4; assay type: ADME, organism-based; details: in vivo, time 4 day
ME-1 [38] = assay: Induction of morphological changes in human ME-1 cells assessed as variations in cell size and shape at 10 uM; assay type: functional, cell-based
OCI-AML-3 [39] = assay: Induction of differentiation in human OCI-AML-3 cells assessed as upregulation of CD11b response incubated for 4 days by flow cytometry analysis; details: OCI-AML-3, 96 h
[40] = Dose normalized AUC (0 to 8 hrs) in CD-1 mouse at 1 mg/kg, po administered as single dose and measured on day 1; assay type: ADME, organism-based; details: in vivo, 24 h, time 1 day
[41] = AUC (0 to 8 hrs) in CD-1 mouse at 20 mg/kg, po administered as repeated dose on day 1 and 4; assay type: ADME, organism-based; details: in vivo, time 4 day
ME-1 [42] = assay: Induction of morphological changes in human ME-1 cells assessed as variations in nuclear segmentation at 10 uM; assay type: functional, cell-based
[43] = Dose normalized Cmax in CD-1 mouse at 1 mg/kg, po administered as single dose and measured on day 1; assay type: ADME, organism-based; details: in vivo, 24 h, time 1 day
THP-1 [44] = assay: Induction of morphological changes in human THP-1 cells assessed as variations in nuclear:cytoplasmic ratio at 10 uM; assay type: functional, cell-based
[45] = Apparent volume of distribution during terminal phase in CD-1 mouse at 3 mg/kg, po administered as single dose and measured over 24 hrs; assay type: ADME, organism-based; details: in vivo, read-out: Vz/F
[46] = Cmax in CD-1 mouse at 1 mg/kg, po administered as single dose and measured on day 1; assay type: ADME, organism-based; details: in vivo, time 1 day
KG-1 [47] = assay: Induction of morphological changes in human KG-1 cells assessed as appearance of granules and vacuoles at 10 uM; assay type: functional, cell-based

What does the source list for Cc1cc(F)ccc1-c1cc(NS(C)(=O)=O)c2ncc(-c3ccc4c(cnn4C)c3)n2c1?
Activity (OCI-AML-3 [1]): Active; Cmax [2]: 204 ng/mL; Activity (Kasumi 1 [3]): Active; Activity (Kasumi 1 [4]): Active; Activity (HL-60 [5]): Active; solubility [6]: > 100 µM; Cmax/dose [7]: 39 ng/mL; Activity (KG-1 [8]): Active; AUC(0-t) at 24 h [9]: 845 ng·h/mL; AUC/dose [10]: 1021 ng·h/mL; Cmax/dose [11]: 34 ng/mL; AUC(0-t) at 96 h [12]: 731 ng·h/mL; AUC/dose [13]: 218 ng·h/mL; solubility thermodynamic [14]: 21 µM (≈ 9.44 µg/mL); Activity (OCI-AML-3 [15]): Active; AUC/dose [16]: 223 ng·h/mL; Activity (KG-1 [17]): Active; Activity (THP-1 [18]): Active; Cmax [19]: 360 ng/mL; half-life [20]: 2.2 h; AUC(0-t) at 24 h [21]: 3060 ng·h/mL; Activity (THP-1 [22]): Active; Activity (KG-1 [23]): Active; Activity (HL-60 [24]): Active; Activity (OCI-AML-3 [25]): Active; AUC(0-t) at 24 h [26]: 4460 ng·h/mL; Activity (KG-1 [27]): Active; Activity (ME-1 [28]): Active; Activity (OCI-AML-3 [29]): Active; Activity (HL-60 [30]): Active; CL/F [31]: 16 mL/min/kg; Activity (ME-1 [32]): Active; Activity (Kasumi 1 [33]): Active; Activity (THP-1 [34]): Active; Activity [35]: Non-Toxic; bioavailability [36]: 100%; half-life [37]: 4.1 h; Activity (ME-1 [38]): Active; EC50 (OCI-AML-3 [39]): 25 nM; AUC/dose [40]: 845 ng·h/mL; AUC(0-t) at 96 h [41]: 4370 ng·h/mL; Activity (ME-1 [42]): Active; Cmax/dose [43]: 187 ng/mL; Activity (THP-1 [44]): Active; Vd/F [45]: 3.1 L/kg; Cmax [46]: 187 ng/mL; Activity (KG-1 [47]): Active
